For the assay, the target named is T1, Human IP6K1 (Homo sapiens, UniProt Q92551).
T1 construct: GST (N, cleaved yes); made in house; host or cells: C43 E. coli, pGEX-6P-2
The assay is described as follows: IP6K1 high-throughput screen of the Sigma LOPAC (ADP-Glo Max, single point).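 Also: final compound concentration 10µM in 5% DMSO.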 In kind it is biochemical.

The mark [1] stands for this setting: LOPAC single-point screen, ADP-Glo Max luminescence raw signal per well.
Setting [2] is: LOPAC single-point screen, Z-score from plate average and StDev.
Setting [3] is: LOPAC single-point screen, ADP-Glo Max raw signal per well.
Setting [4] is: LOPAC single-point screen, Z-score against plate average and StDev.
Where [5] appears, read: LOPAC single-point screen, Z-score from raw signal with plate average and StDev.
The mark [6] stands for this setting: LOPAC single-point screen, Z-score relative to plate average and StDev.
The mark [7] stands for this setting: Sigma LOPAC single-point screen, ADP-Glo Max raw signal per well.
The mark [8] stands for this setting: Sigma LOPAC single-point screen, Z-score from plate average and StDev.

Where a name gives a salt, the structure may show the parent alone.

T1 sequence (Q92551 whole entry): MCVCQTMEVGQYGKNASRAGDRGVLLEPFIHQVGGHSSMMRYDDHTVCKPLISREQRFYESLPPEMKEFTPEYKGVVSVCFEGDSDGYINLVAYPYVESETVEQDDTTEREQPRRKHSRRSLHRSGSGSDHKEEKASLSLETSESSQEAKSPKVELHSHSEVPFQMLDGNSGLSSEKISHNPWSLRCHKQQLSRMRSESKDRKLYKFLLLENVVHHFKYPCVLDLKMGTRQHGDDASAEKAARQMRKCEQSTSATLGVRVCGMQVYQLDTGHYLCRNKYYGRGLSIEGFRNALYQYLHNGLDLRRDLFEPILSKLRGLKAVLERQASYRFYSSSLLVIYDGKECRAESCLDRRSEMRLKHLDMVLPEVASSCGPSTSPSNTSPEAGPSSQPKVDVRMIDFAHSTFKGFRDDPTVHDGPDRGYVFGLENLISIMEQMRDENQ

For `CCCCCCCCCCCCCCCCCC(=O)NCC(COP(=O)([O-])OCC[N+](C)(C)C)OCC` (racemic), under setting [1], the “Raw Signal” value is 62966. In addition, the Z-score under setting [2] amounted to 1.584.
In the case of `CCN1CCC[C@H]1CNC(=O)c1cc(S(N)(=O)=O)ccc1OC` [(-)-Sulpiride], under setting [3], the “Raw Signal” value is given as 56775. Further, the Z-score under setting [4] was determined as 0.1459.
For `COc1ccc2c(c1)[C@@]13CCCC[C@H]1[C@@H](C2)NCC3.Cl` [3-Methoxy-morphanin hydrochloride], the “Raw Signal” value under setting [3] is given as 54071. The molecule also had a Z-score under setting [4] of -0.05419.
In the case of `N=C(N)NC(=O)Cc1c(Cl)cccc1Cl` [Guanfacine hydrochloride], the “Raw Signal” value under setting [3] worked out at 54831. The molecule further showed a Z-score under setting [4] of -0.06825.
For the molecule `Oc1ccc(/C=C/c2cc(O)cc(O)c2)cc1` [Resveratrol], the “Raw Signal” value under setting [3] is recorded as 54146. Under setting [5], the Z-score is given as -0.3648.
Regarding `CC[N+](C)(CC)CC(=O)Nc1c(C)cccc1C.[Cl-]` [Lidocaine N-methyl hydrochloride], the “Raw Signal” value under setting [1] is on record as 51540. Further, the Z-score under setting [6] was -0.4795.
On to `COc1ccc2c(c1)c(CC(=O)N1CCOCC1)c(C)n2C(=O)c1ccc(Cl)cc1` [Indomethacin morpholinylamide], for which the “Raw Signal” value under setting [3] worked out at 52785. Also, under setting [5], the Z-score is recorded as -0.2703.
For the molecule `CCCCS(=N)(=O)CCC(N)C(=O)O` (racemic) [DL-Buthionine-[S,R]-sulfoximine], the “Raw Signal” value under setting [1] was found to be 66724. In addition, the Z-score under setting [2] is 1.552.
For `CCN(c1nc(N)c(C(=O)NC(=N)N)nc1Cl)C(C)C` [5-(N-Ethyl-N-isopropyl)amiloride], the “Raw Signal” value under setting [3] came out at 57414. The same molecule came in with a Z-score under setting [4] of -0.08791.
Turning to `CNC[C@H](O)c1ccc(O)c(O)c1` [(-)-Epinephrine bitartrate], the “Raw Signal” value under setting [1] stood at 51229. The molecule further came in with a Z-score under setting [6] of -0.7998.
On to `CC(=O)N1CCN(c2ccc(OCC3COC(Cn4ccnc4)(c4ccc(Cl)cc4Cl)O3)cc2)CC1` (stereo not shown) [Ketoconazole], for which, under setting [1], the “Raw Signal” value turned out to be 49591. Moreover, the Z-score under setting [6] is recorded as -0.8069.
For `NS(=O)(=O)c1cc(C(=O)O)c(NCc2ccco2)cc1Cl` [Furosemide], the “Raw Signal” value under setting [3] amounted to 53546. Besides, under setting [5], the Z-score is given as -0.3292.
Take `CN(C)c1ccc(/C=C2\C(=O)Nc3ccccc32)cc1` [SU 4312]: under setting [7], the “Raw Signal” value was determined as 60273. The molecule also yielded a Z-score under setting [8] of 0.8255.
In the case of `COc1cc(CCN)ccc1O.Cl`, the “Raw Signal” value under setting [3] was determined as 53513. The molecule also gave a Z-score under setting [5] of -0.1479.
For `CCCn1c(=O)c2c(ncn2C)n(CCC)c1=O` [1,3-Dipropyl-7-methylxanthine], the “Raw Signal” value under setting [7] is 58298. The Z-score under setting [8] turned out to be 0.6359.
For `O=S(=O)(O)C1CCNCC1` [Piperidine-4-sulphonic acid], the “Raw Signal” value under setting [3] was 54931. In addition, the Z-score under setting [5] is given as -0.2123.
For `CN1C2CCC1CC(OC(c1ccccc1)c1ccc(Cl)cc1)C2.Cl` (stereo not shown), under setting [1], the “Raw Signal” value is recorded as 50933. The Z-score under setting [6] was -0.8599.
`O=C(O)C1CCNCC1` [Isonipecotic acid]: the “Raw Signal” value under setting [3] is 51826. This molecule also showed a Z-score under setting [5] of -0.4314.
Regarding `Oc1cc(-c2ccccc2)nc2nc(Cl)ccc12`, under setting [3], the “Raw Signal” value is listed as 57826. Under setting [4], this molecule came in with a Z-score of -0.01534.
With `N#C/C(=C\c1ccc(O)c(O)c1)C(=O)NCCCNC(=O)/C(C#N)=C/c1ccc(O)c(O)c1` [Tyrphostin AG 537], the “Raw Signal” value under setting [1] amounted to 33325. Under setting [6], this molecule came in with a Z-score of -4.41.
For the molecule `CCN(CC)CCNC(=O)c1ccc(NC(C)=O)cc1.Cl` [N-Acetylprocainamide hydrochloride], the “Raw Signal” value under setting [1] came to 70393. This molecule also displayed a Z-score under setting [2] of 2.198.
For the molecule `O=C(O)Cc1ccccc1Nc1c(Cl)cccc1Cl` [Diclofenac sodium], the “Raw Signal” value under setting [3] worked out at 53274. The Z-score under setting [5] is recorded as -0.3845.
Turning to `CN(C)CCOC(c1ccccc1)c1ccccc1` [Diphenhydramine hydrochloride], the “Raw Signal” value under setting [3] is listed as 54459. Moreover, the Z-score under setting [5] is -0.1438.
On to `CC[C@H](CO)Nc1nc(NCc2ccccc2)c2ncn(C(C)C)c2n1` [Roscovitine], for which, under setting [3], the “Raw Signal” value was 54754. Under setting [5], this molecule showed a Z-score of -0.2467.
The corresponding values for `NC(=O)COc1c(F)cc(SCCNS(=O)(=O)c2ccccc2)cc1F` are 52796 and -0.2684.
SKF 83565 hydrobromide: the “Raw Signal” value under setting [7] stood at 61448. Under setting [8], this molecule returned a Z-score of 1.054.
With `N#CC(C#N)=Cc1cc(O)c(O)c(O)c1` [Tyrphostin 25], the “Raw Signal” value under setting [1] is listed as 46819. Moreover, the Z-score under setting [6] is listed as -1.788.
Consider `Cl.NCCCCC(=O)O` [5-Aminovaleric acid hydrochloride], for which the “Raw Signal” value under setting [3] stood at 58378. For the same molecule, the Z-score under setting [4] is given as 0.08188.
As to `Nc1ncnc2c1ncn2[C@@H]1O[C@H](CO)[C@@H](O)[C@H]1O` [Adenosine], the “Raw Signal” value under setting [3] is 56689. The molecule also came in with a Z-score under setting [5] of -0.2156.
As to `CCCCN1CCC(COC(=O)c2cc(Cl)c(N)c3c2OCCO3)CC1.Cl` [SB 204070 hydrochloride], under setting [7], the “Raw Signal” value was 60689. Further, the Z-score under setting [8] is 0.9064.
On to `Br.C=CCN1CCc2cccc3c2[C@H]1Cc1ccc(O)c(O)c1-3` [R(-)-N-Allylnorapomorphine hydrobromide], for which, under setting [1], the “Raw Signal” value came to 62401. The molecule also yielded a Z-score under setting [2] of 1.469.
Consider `CC#C[C@]1(O)CC[C@H]2[C@@H]3CCC4=CC(=O)CCC4=C3[C@@H](c3ccc(N(C)C)cc3)C[C@@]21C` [Mifepristone], for which the “Raw Signal” value under setting [7] is recorded as 60991. Further, under setting [8], the Z-score is given as 1.109.
For S-Nitroso-N-acetylpenicillamine, the “Raw Signal” value under setting [3] is 52205. Moreover, the Z-score under setting [5] is -0.3677.
In the case of `CSc1nc(N)c2ncn([C@@H]3O[C@H](COP(=O)([O-])OP(=O)([O-])OP(=O)([O-])[O-])[C@@H](O)[C@H]3O)c2n1.[Na+].[Na+].[Na+].[Na+]`, the “Raw Signal” value under setting [3] was determined as 58230. The same molecule came in with a Z-score under setting [4] of 0.05581.
Regarding `N#Cc1c(-c2ccccc2)no[n+]1[O-]` [4-Phenyl-3-furoxancarbonitrile], the “Raw Signal” value under setting [3] is 53966. Under setting [4], this molecule returned a Z-score of -0.07183.
`NC(Cc1cccc(-c2ccccc2CP(=O)(O)O)c1)C(=O)O` (stereo not shown): under setting [3], the “Raw Signal” value stood at 56365. For the same molecule, under setting [4], the Z-score is reported as 0.06629.
Take `CC(C)(C)[C@]1(O)CCN2C[C@H]3c4ccccc4CCc4cccc(c43)[C@@H]2C1` [(+)-Butaclamol hydrochloride]: the “Raw Signal” value under setting [1] turned out to be 54506. In addition, under setting [6], the Z-score is listed as -0.6001.
Take `Oc1cc(O)cc(/C=C/c2ccc(O)c(O)c2)c1` [Piceatannol]: the “Raw Signal” value under setting [1] is given as 49635. Besides, the Z-score under setting [6] is recorded as -0.7996.
As for `Br.CCCN(CCC)C1CCc2ccc(O)cc2C1` (racemic) [(±)-7-Hydroxy-DPAT hydrobromide], the “Raw Signal” value under setting [3] was determined as 55055. Further, the Z-score under setting [4] was -0.02275.
Consider (+)-Catechin Hydrate, for which the “Raw Signal” value under setting [3] came out at 56524. Moreover, under setting [5], the Z-score is reported as -0.2447.
On to `CN[C@H](CC(=O)O)C(=O)O` [N-Methyl-D-aspartic acid], for which, under setting [7], the “Raw Signal” value worked out at 57133. For the same molecule, the Z-score under setting [8] is listed as 0.4603.
With `N[C@@H](Cc1ccc(O)c(I)c1)C(=O)O` [3-Iodo-L-tyrosine], the “Raw Signal” value under setting [1] came to 50230. Moreover, the Z-score under setting [6] is -0.6996.
For `CC[C@@H](CO)NC(=O)[C@@H]1C=C2c3cccc4c3c(cn4C)C[C@H]2N(C)C1` [Methysergide maleate], under setting [3], the “Raw Signal” value is 55881. Further, under setting [4], the Z-score was 0.2499.
As to `CCCCC1(C2CCCC2)Cc2cc(OCC(=O)O)c(Cl)c(Cl)c2C1=O` (stereo in doubt) [R(+)-Butylindazone], under setting [3], the “Raw Signal” value came to 53463. The same molecule gave a Z-score under setting [5] of -0.3461.
Turning to `Cn1c(=O)c2c(ncn2C)n(C)c1=O` [Caffeine], under setting [3], the “Raw Signal” value was found to be 57928. The molecule also displayed a Z-score under setting [4] of 0.002624.
As for `CC(=O)Oc1cc(C(C)C)c(OCCN(C)C)cc1C` [Moxisylyte hydrochloride], the “Raw Signal” value under setting [3] was 54969. The Z-score under setting [4] was 0.0967.
Turning to `COc1ccccc1NC(=O)Nc1nc(-c2cccnc2)nc2ccccc12` [VUF 5574], the “Raw Signal” value under setting [7] was found to be 58097. Also, the Z-score under setting [8] is listed as 0.4028.
The matching figures for `Cc1cnc(C(=O)NCCc2ccc(S(=O)(=O)NC(=O)NC3CCCCC3)cc2)cn1` [Glipizide]: 60018 and 0.9852.
As for `Cl.N[C@@H](CCC(=O)O)C(=O)O` [L-Glutamic acid hydrochloride], the “Raw Signal” value under setting [3] is recorded as 55889. Under setting [4], this molecule had a Z-score of 0.1466.
With `O=C(NCCNCC(O)COc1ccc(O)cc1)N1CCOCC1` (stereo not shown) [Xamoterol hemifumarate], under setting [7], the “Raw Signal” value was 60033. Under setting [8], this molecule displayed a Z-score of 0.7789.
Turning to `Cc1cn[nH]c1.Cl` [4-Methylpyrazole hydrochloride], under setting [1], the “Raw Signal” value is given as 63526. Under setting [2], this molecule came in with a Z-score of 1.5345.
As to `CN(C)c1nc(N)c(C(=O)NC(=N)N)nc1Cl` [5-(N,N-Dimethyl)amiloride hydrochloride], the “Raw Signal” value under setting [3] is 56769. Under setting [5], this molecule showed a Z-score of -0.2015.
For `Cl.N=C(N)NN` [Aminoguanidine hydrochloride], under setting [3], the “Raw Signal” value is listed as 58743. For the same molecule, the Z-score under setting [4] turned out to be 0.1462.
For the molecule `CNCC[C@@H](Oc1ccccc1C)c1ccccc1` [Tomoxetine], the “Raw Signal” value under setting [7] turned out to be 58582. Further, the Z-score under setting [8] is reported as 0.497.
As to `NCCS(=O)O` [Hypotaurine], the “Raw Signal” value under setting [3] is given as 53524. This molecule yielded a Z-score under setting [5] of -0.3337.
In the case of `CS(=O)(=O)Nc1ccc([N+](=O)[O-])cc1Oc1ccccc1` [Nimesulide], the “Raw Signal” value under setting [3] came to 51877. Under setting [5], this molecule showed a Z-score of -0.4228.
